Values quoted from earlier work as cited in patent US20070122350A1, “Safe and effective methods of administering therapeutic agents” (Transave, Inc., priority 2005, published 2007).

Details: OSHA

## N.N.[Cl][Pt][Cl] [cisplatin, Cis-diamminedichloroplatinum(II)]
Averaged over an eight-hour work shift
  legal airborne permissible exposure limit (PEL): 2·10^−3 mg/m^3
Per liter of air during 480 consecutive minutes
  legal airborne permissible exposure limit (PEL), equivalent: 2 ng/L
